According to patent US20240325398A1, “COMBINATION THERAPIES” (Infinity Pharmaceuticals, Inc., priority 2014, published 2024):

Experiments:
GRANTA-519 = test: Combination study, ATPLite 72 h, dose matrix (Synergy Score, CI50); settings: combination with Compound 1
SU-DHL-10-epst = test: as above; settings: combination with Compound 1, 72 h
OMP-2 = test: as above; settings: combination with Compound 1; OPM-2
[1] = as above; settings: combination with Compound 1; OPM-2
OCI-Ly3 = test: as above; settings: combination with Compound 1; OCI-Ly3; 72 h
Farage = test: as above; settings: combination with Compound 1; Farage; 72 h
WSU-NHL = test: as above; settings: combination with Compound 1, 72 h
HBL-1 = test: as above; settings: combination with Compound 1, 72 h
U-2932 = test: as above; settings: combination with Compound 1, 72 h
KARPAS-299 = test: as above; settings: combination with Compound 1
HH = test: as above; format: cell-based; settings: combination with Compound 1
Method: The method is described as follows.
Additive effect is CI=1.0. […] Antagonistic effect is CI>1.0.
The Synergy Score is calculated as: […]

KARPAS-422 = test: as above; settings: combination with Compound 1, 72 h
DOHH-2 = test: as above; settings: combination with Compound 1, 72 h
SU-DHL-4-epst = test: as above; settings: combination with Compound 1, 72 h
RPMI-8226 = test: as above; settings: combination with Compound 1
Mino = test: as above; settings: combination with Compound 1
NCI-H929 = test: as above; settings: combination with Compound 1
OCI-Ly7 = test: as above; settings: combination with Compound 1, 72 h
Method: (§1) Cells are thawed from a liquid nitrogen preserved state. Once cells have been expanded and divide at their expected doubling times, screening begins. Cells are seeded in growth media in either black 1536-well or 384-well tissue culture treated plates. Cells are then equilibrated in assay plates via centrifugation and placed in incubators attached to the Dosing Modules at 37° C. for 24 hours before treatment. […] These Tzero (To) plates are read using ultra-sensitive luminescence on Envision plate readers (Perkin Elmer). Treated assay plates are incubated with compound for 72 hours. After 72 hours, plates are developed for endpoint analysis using ATPLite. All data points are collected via automated processes, quality controlled and analyzed using Zalicus software.
The measure of effect in the experiment can be the inhibition of cellular response relative to the untreated level (vehicle alone). […] The inhibition ranges from 0% at the untreated level to 100% when T=0. Inhibition levels are negative for agents that actually increase levels.
(§2) Growth Inhibition (GI) is used as a measure of cell viability. […] A GI reading of 100% represents complete growth inhibition—T72 compound-treated and T0 vehicle signals are matched. […] A GI reading of 200% represents complete death of all cells in the culture well. Compounds reaching an activity plateau of GI 200% are considered cytotoxic. GI is calculated by applying the following test and equation:
(§3) Combination analysis data were collected in a 6×6 dose matrix. Synergy is calculated by comparing a combination's response to those of its single compound, against the drug-with-itself dose-additive reference model. Deviations from dose additivity may be assessed visually on an isobologram or numerically with a Combination Index (CI). […] Additive effect is CI=1.0. […] Antagonistic effect is CI>1.0.
(§4) To measure combination effects in excess of Loewe additivity, a scalar measure to characterize the strength of synergistic interaction termed the Synergy Score is devised. The Synergy Score is calculated as:
(§5) The fractional inhibition for each component agent and combination point in the matrix is calculated relative to the median of all vehicle-treated control wells. The Synergy Score equation integrates the experimentally-observed activity volume at each point in the matrix in excess of a model surface numerically derived from the activity of the component agents using the Loewe model for additivity. Additional terms in the Synergy Score equation (above) are used to normalize for various dilution factors used for individual agents and to allow for comparison of synergy scores across an entire experiment. The inclusion of positive inhibition gating or an Idata multiplier removes noise near the zero effect level, and biases results for synergistic interactions at that occur at high activity levels.
Loewe Volume (Loewe Vol) is used to assess the overall magnitude of the combination interaction in excess of the Loewe additivity model. Loewe Volume is particularly useful when distinguishing synergistic increases in a phenotypic activity (positive Loewe Volume) versus synergistic antagonisms (negative Loewe Volume). […] This model defines additivity as a non-synergistic combination interaction where the combination dose matrix surface should be indistinguishable from either drug crossed with itself. The calculation for Loewe additivity is:

Jeko-1 = test: as above; settings: combination with Compound 1
TMD8 = test: as above; settings: combination with Compound 1; TMD8; 72 h
RL = test: as above; settings: combination with Compound 1, 72 h
Method: as §1
where T is treated cell count and V is untreated (vehicle) cell count (at 72 hours). I ranges from 0% (when T=V) to 100% (when T=0). […] The measure of effect in the experiment can be the inhibition of cellular response relative to the untreated level (vehicle alone). […] The inhibition ranges from 0% at the untreated level to 100% when T=0. Inhibition levels are negative for agents that actually increase levels. Other effect measures, such as an activity ratio r=T/V may be more appropriate for some assays. When activity ratios (e.g, fold increase over stimulated control) are being used, the effect can be measured using an induction 1=ln(T/V). With this definition, all effect expressions are the same as for inhibition.
as §2, §3, §4, §5
Loewe Volume (Loewe Vol) is used to assess the overall magnitude of the combination interaction in excess of the Loewe additivity model. Loewe Volume is particularly useful when distinguishing synergistic increases in a phenotypic activity (positive Loewe Volume) versus synergistic antagonisms (negative Loewe Volume). […] This model defines additivity as a non-synergistic combination interaction where the combination dose matrix surface should be indistinguishable from either drug crossed with itself.

CN1CCc2c(c3ccccc3n2Cc2ccc(C(=O)NO)cc2)C1.Cl [Tubastatin A hydrochloride]
S (S=0.01 to <0.5): CI50 growth inhibition (GRANTA-519) | CI50 growth inhibition (Farage) | CI50 growth inhibition (HH) | CI50 inhibition (SU-DHL-4-epst) | CI50 growth inhibition (OCI-Ly7)
A2 (A2=1 to <3): Synergy Score growth inhibition (GRANTA-519) | Synergy Score inhibition (SU-DHL-10-epst) | Synergy Score growth inhibition (OCI-Ly3) | Synergy Score inhibition (Farage) | Synergy Score inhibition (WSU-NHL) | Synergy Score growth inhibition (HBL-1) | Synergy Score inhibition (HH) | Synergy Score inhibition (DOHH-2) | Synergy Score inhibition (SU-DHL-4-epst) | Synergy Score growth inhibition (RPMI-8226) | Synergy Score growth inhibition (Mino) | Synergy Score inhibition (NCI-H929) | Synergy Score inhibition (OCI-Ly7) | Synergy Score inhibition (TMD8) | Synergy Score growth inhibition (RL) | Synergy Score inhibition (RL)
T (T=0.5 to <0.7): CI50 growth inhibition (SU-DHL-10-epst) | CI50 inhibition (SU-DHL-10-epst) | CI50 inhibition (Farage) | CI50 growth inhibition (WSU-NHL) | CI50 inhibition (WSU-NHL) | CI50 inhibition (HH) | CI50 growth inhibition (DOHH-2) | CI50 inhibition (DOHH-2) | CI50 growth inhibition (SU-DHL-4-epst) | CI50 inhibition (NCI-H929)
A1 (A1=0.0001 to <1): Synergy Score inhibition (GRANTA-519) | Synergy Score growth inhibition (OMP-2) | Synergy Score inhibition (OMP-2) | Synergy Score inhibition (OCI-Ly3) | Synergy Score inhibition (HBL-1) | Synergy Score growth inhibition (U-2932) | Synergy Score inhibition (U-2932) | Synergy Score growth inhibition (KARPAS-299) | Synergy Score inhibition (KARPAS-299) | Synergy Score growth inhibition (KARPAS-422) | Synergy Score inhibition (KARPAS-422) | Synergy Score inhibition (RPMI-8226) | Synergy Score inhibition (Mino) | Synergy Score growth inhibition (Jeko-1) | Synergy Score inhibition (Jeko-1)
W (W=≥1): CI50 inhibition (GRANTA-519) | CI50 growth inhibition [1] | CI50 inhibition (OCI-Ly3) | CI50 inhibition (HBL-1) | CI50 growth inhibition (Jeko-1) | CI50 inhibition (Jeko-1) | CI50 growth inhibition (RL) | CI50 inhibition (RL)
U (U=0.7 to <1): CI50 growth inhibition (OCI-Ly3) | CI50 growth inhibition (HBL-1) | CI50 growth inhibition (U-2932) | CI50 growth inhibition (RPMI-8226) | CI50 inhibition (RPMI-8226) | CI50 growth inhibition (Mino) | CI50 inhibition (Mino) | CI50 growth inhibition (NCI-H929) | CI50 inhibition (OCI-Ly7) | CI50 growth inhibition (TMD8) | CI50 inhibition (TMD8)
A3 (A3=>3): Synergy Score growth inhibition (SU-DHL-10-epst) | Synergy Score growth inhibition (Farage) | Synergy Score growth inhibition (WSU-NHL) | Synergy Score growth inhibition (HH) | Synergy Score growth inhibition (DOHH-2) | Synergy Score growth inhibition (SU-DHL-4-epst) | Synergy Score growth inhibition (NCI-H929) | Synergy Score growth inhibition (OCI-Ly7) | Synergy Score growth inhibition (TMD8)

CC(C)C[C@H](NC(=O)[C@H](Cc1ccccc1)NC(=O)c1cnccn1)B(O)O [bortezomib, [(1R)-3-methyl-1-({(2S)-3-phenyl-2-[(pyrazin-2-ylcarbonyl)amino]propanoyl}amino)butyl]boronic acid]
W (W=≥1): CI50 inhibition (OMP-2) | CI50 growth inhibition [1] | CI50 inhibition (OCI-Ly3) | CI50 inhibition (U-2932) | CI50 growth inhibition (KARPAS-422) | CI50 inhibition (KARPAS-422) | CI50 inhibition (NCI-H929) | CI50 inhibition (RL)
T (T=0.5 to <0.7): CI50 growth inhibition (GRANTA-519) | CI50 inhibition (SU-DHL-4-epst)
U (U=0.7 to <1): CI50 inhibition (GRANTA-519) | CI50 growth inhibition (SU-DHL-10-epst) | CI50 inhibition (SU-DHL-10-epst) | CI50 growth inhibition (OCI-Ly3) | CI50 growth inhibition (Farage) | CI50 inhibition (Farage) | CI50 growth inhibition (WSU-NHL) | CI50 inhibition (WSU-NHL) | CI50 growth inhibition (HBL-1) | CI50 inhibition (HBL-1) | CI50 growth inhibition (U-2932) | CI50 growth inhibition (KARPAS-299) | CI50 inhibition (KARPAS-299) | CI50 growth inhibition (HH) | CI50 inhibition (HH) | CI50 growth inhibition (DOHH-2) | CI50 inhibition (DOHH-2) | CI50 growth inhibition (SU-DHL-4-epst) | CI50 growth inhibition (RPMI-8226) | CI50 inhibition (RPMI-8226) | CI50 growth inhibition (Mino) | CI50 inhibition (Mino) | CI50 growth inhibition (NCI-H929) | CI50 growth inhibition (OCI-Ly7) | CI50 inhibition (OCI-Ly7) | CI50 growth inhibition (Jeko-1) | CI50 inhibition (Jeko-1) | CI50 growth inhibition (TMD8) | CI50 inhibition (TMD8) | CI50 growth inhibition (RL)
